System: α2-subtype of the human α-adrenergic receptor
Experiment: SPA assay, affinity for the α2-subtype of the human α-adrenergic receptor
Assay type: binding
Settings: at a concentration of 10 μM
Description: The affinity for the α2-subtype of the human α-adrenergic receptor was determined by means of a SPA assay conventionally used for high throughput screening as described in John P. Devlin, High Throughput Screening, Marcel Dekker Inc. 1997, pp. 307 to 316. This literature is introduced here as a reference and thus forms part of the disclosure. At a concentration of 10 μM, the following affinities for the listed examples were determined: […]

| α2-affinity, 10 μM | SMILES |
| --- | --- |
| 67% | [C-]#[N+]CCCCCCNc1c(C2CCCCC2)nc2cccc(C)n12 [Example 16] |
| 65% | Cc1ccc2nc(C)c(NC(C)(C)CC(C)(C)C)n2c1 [Example 17, (2,6-dimethylimidazo[1,2-a]pyridin-3-yl)-(1,1,3,3-tetramethylbutyl)-amine] |
| 74% | Cc1ccn2c(NC3CCCCC3)c(C)nc2c1 [Example 18, cyclohexyl-(2,7-dimethylimidazo[1,2-a]pyridin-3-yl)-amine] |
| 81% | Cc1cc(C)n2c(NC3CCCCC3)c(C)nc2c1 [Example 19, cyclohexyl-(2,5,7-trimethylimidazo[1,2-a]pyridin-3-yl)-amine] |
| 85% | [C-]#[N+]CCCCCCNc1c(-c2ccc(OC)c(OC)c2)nc2ccc(C)cn12 [Example 20, [2-(3,4-dimethoxyphenyl)-6-methylimidazo[1,2-a]pyridin-3-yl]-(6-isocyanohexyl)-amine] |
| 109% | Cc1ccn2c(NC(C)(C)CC(C)(C)C)c(C)nc2c1 [Example 21, (2,7-dimethylimidazo[1,2-a]pyridin-3-yl)-(1,1,3,3-tetramethylbutyl)-amine] |
| 69% | Cc1nc2c(C)cccn2c1NC(C)(C)CC(C)(C)C [Example 22, (2,8-dimethyl-imidazo[1,2-a]pyridin-3-yl)-(1,1,3,3-tetramethylbutyl)-amine] |
| 97% | Cc1cc(C)n2c(NC(C)(C)CC(C)(C)C)c(C)nc2c1 [Example 23, (1,1,3,3-tetramethylbutyl)-(2,5,7-trimethylimidazo[1,2-a]pyridin-3-yl)-amine] |
| 75% | [C-]#[N+]CCCCCCNc1c(-c2ccc(OC)c(OC)c2)nc2cc(C)ccn12 [Example 24, [2-(3,4-dimethoxyphenyl)-7-methylimidazo[1,2-a]pyridin-3-yl]-(6-isocyanohexyl)-amine] |
| 51% | [C-]#[N+]CCCCCCNc1c(-c2ccccc2OC)nc2ccc(C)cn12 [Example 25, (6-isocyanohexyl)-[2-(2-methoxyphenyl)-6-methyl-imidazo[1,2-a]pyridin-3-yl]-amine] |
| 70% | FC(F)(F)c1ccc2nc(-c3ccco3)c(NC3CCCCC3)n2c1 [Example 26, cyclohexyl-(2-furan-2-yl-6-trifluoromethylimidazo[1,2-a]pyridin-3-yl)-amine] |
| 100% | Cc1nc2c(OCc3ccccc3)cccn2c1NC(C)(C)CC(C)(C)C [Example 29, (8-benzyloxy-2-methylimidazo[1,2-a]pyridin-3-yl)-(1,1,3,3-tetramethylbutyl)-amine] |
| 60% | COC(=O)CNc1c(C2CCCCC2)nc2c(OCc3ccccc3)cccn12 [Example 30, (8-benzyloxy-2-cyclohexylimidazo[1,2-a]pyridin-3-ylamino)-acetic acid methyl ester] |
| 61% | COC(=O)CNc1c(C)nc2c(OCc3ccccc3)cccn12 [Example 31, (8-benzyloxy-2-methylimidazo[1,2-a]pyridin-3-ylamino)-acetic acid methyl ester] |
| 61% | CCCCNc1c(C2CCCCC2)nc2cccc(CCC)n12 [Example 32, Butyl-(2-cyclohexyl-5-propylimidazo[1,2-a]pyridin-3-yl)-amine] |
| 73% | CC(=O)N(c1c(-c2ccco2)nc2c(Cl)cc(Cl)cn12)C1CCCCC1 [Example 33, N-cylcohexyl-N-(6,8-dichloro-2-furan-2-yl-imidazo[1,2-a]pyridin-3-yl)-acetamide] |
| 72% | CC(=O)N(c1c(-c2ccco2)nc2ccc(C(F)(F)F)cn12)C1CCCCC1 [Example 34, N-cylcohexyl-N-(2-furan-2-yl-6-trifluoromethylimidazo[1,2-a]pyridin-3-yl)-acetamide] |
| 75% | CC(=O)N(c1c(C2CCCCC2)nc2c(OCc3ccccc3)cccn12)C1CCCCC1 [Example 35, N-(8-benzyloxy-2-cyclohexylimidazo[1,2-a]pyridin-3-yl)-N-cyclohexyl-acetamide] |
